These molecules were tested against V2 receptor (Homo sapiens, UniProt P30518) (assay: Determination of V2 receptor agonist activity in vitro (cellular activation)). Settings: concentration of compound necessary to cause a half-maximal cellular activation.
Format: cell-based
Experimental: Determination of V2r Ceptor Agonist Activity in Vitro
Agonist activity was determined for all compounds and is reported as an EC50 value, being that concentration of compound necessary to cause a half-maximal cellular activation.

Chain of V2 receptor (P30518 whole entry): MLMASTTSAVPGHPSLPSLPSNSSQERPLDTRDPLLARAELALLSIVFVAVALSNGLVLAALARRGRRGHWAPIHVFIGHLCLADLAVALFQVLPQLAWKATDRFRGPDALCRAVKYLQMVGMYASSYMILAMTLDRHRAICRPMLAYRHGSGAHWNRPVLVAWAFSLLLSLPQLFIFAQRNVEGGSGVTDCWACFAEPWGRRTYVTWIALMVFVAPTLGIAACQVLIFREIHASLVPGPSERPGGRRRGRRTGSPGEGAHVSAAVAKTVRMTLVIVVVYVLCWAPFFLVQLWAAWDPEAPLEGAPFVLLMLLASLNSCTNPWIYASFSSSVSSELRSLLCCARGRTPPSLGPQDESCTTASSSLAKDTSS

SMILES | EC50
O=C(NCc1ccc(C(=O)N2CCCCc3ccccc32)cc1)Nc1c(F)cccc1F [Example 1, 1-(4-[3-(2,6-Difluorophenyl)ureidomethyl]benzoyl)-2,3,4,5-tetrahydro-1H-1-benzazepine] | 39 nM
N#C/N=C(\NCc1ccc(C(=O)N2CCCCc3ccccc32)cc1)Nc1c(F)cccc1F [Example 2, 1-(4-[3-(2,6-Difluorophenyl)cyanoguanidinomethyl]benzoyl)-2,3,4,5-tetrahydro-1H-1-benzazepine] | 160 nM
O=C(NCc1ccc(C(=O)N2CCCCc3ccccc32)cn1)Nc1c(F)cccc1F [Example 3, 1-(6-[3-(2,6-Difluorophenyl)ureidomethyl]nicotinoyl)-2,3,4,5-tetrahydro-1H-1-benzazepine] | 300 nM
COc1cccc(NC(=O)NCc2ccc(C(=O)N3CCCCc4ccccc43)cc2Cl)c1 [Example 4, 1-(3-Chloro-4-[3-(3-methoxyphenyl)ureidomethyl]benzoyl)-2,3,4,5-tetrahydro-1H-1-benzazepine] | 300 nM
O=C(NCc1ccc(C(=O)N2CCCCc3ccccc32)cc1Cl)Nc1ccccc1Cl [Example 5, 1-(3-Chloro-4-[3-(2-chloropheny)ureidomethyl]benzoyl)-2,3,4,5-tetrahydro-1H-1-benzazepine] | 150 nM
O=C(c1ccc(CNC(=S)Nc2c(F)cccc2F)c(Cl)c1)N1CCCCc2ccccc21 [Example 6, 1-(3-Chloro-4-[3-(2,6-difluorophenyl)thioureidomethyl]benzoyl)-2,3,4,5-tetrahydro-1H-1-benzazepine] | 47 nM
Cc1cc(CNC(=O)Nc2c(F)cccc2F)ccc1C(=O)N1CCCCc2ccccc21 [Example 7, 1-(4-[3-(2,6-Difluorophenyl)ureidomethyl]-2-methylbenzoyl)-2,3,4,5-tetrahydro-1H-1-benzazepine] | 24 nM
Cc1cc(C(=O)N2CCCCc3ccccc32)ccc1CNC(=O)NS(=O)(=O)c1ccccc1 [Example 8, 1-(3-Methyl-4-[3-(phenylsulfonyl)ureidomethyl]benzoyl)-2,3,4,5-tetrahydro-1H-1-benzazepine] | 220 nM
Cc1cc(C(=O)N2CCCCc3ccccc32)ccc1CNC(=O)Nc1ccc[nH]c1=O [Example 9, 1-(3-Methyl-4-[3-(2-oxo-1,2-dihydropyrid-3-yl)ureidomethyl]benzoyl)-2,3,4,5-tetrahydro-1H-1-benzazepine] | 50 nM
Cc1cc(C(=O)N2CCCCc3ccccc32)ccc1CNC(=O)Nc1c(F)cccc1F [Example 10] | 4 nM
O=C(c1ccc(CNS(=O)(=O)Cc2ccccc2[N+](=O)[O-])c([N+](=O)[O-])c1)N1CCCCc2ccccc21 [Example 11, 1-(3-Nitro-4-[2-nitrobenyzlsulfonylaminomethyl]benzoyl)-2,3,4,5-tetrahydro-1H-1-benzazepine] | 21 nM
Nc1cc(C(=O)N2CCCCc3ccccc32)ccc1CNC(=O)Nc1c(F)cccc1F [Example 12, 1-(3-Amino-4-[3-(2,6 difluorophenyl)ureidomethyl]benzoyl)-2,3,4,5-tetrahydro-1H-1-benzazepine] | 50 nM
CN(C)c1cc(C(=O)N2CCCCc3ccccc32)ccc1CNC(=O)Nc1c(F)cccc1F [Example 13, 1-(4-[3-(2,6-Difluorophenyl)ureldomethyl]-3-dimethylaminobenzoyl)-2,3,4,5-tetrahydro-1H-1-benzazepine] | 38 nM
O=C(NCc1ccc(C(=O)N2CCCCc3ccccc32)c(F)c1)Nc1c(F)cccc1F [Example 14, 1-(4-[3-(2,6-Difluorophenyl)ureidomethyl]-2-fluorobenzoyl)-2,3,4,5-tetrahydro-1H-1-benzazepine] | 240 nM
Cc1cc(C(=O)N2CCCNc3ccccc32)ccc1CNC(=O)Nc1c(F)cccc1F [Example 15, 1-(4-[3-(2,6-Difluorophenyl)ureidomethyl]-3-methylbenzoyl)-2,3,4,5-tetrahydro-1H-1,5-bezazepine] | 44 nM
Cc1cc(C(=O)N2CCCN(Cc3cccnc3)c3ccccc32)ccc1CNC(=O)Nc1c(F)cccc1F [Example 16, 1-(4-[3-(2,6-Difluorophenyl)ureidomethyl]-3-methylbenzoyl)-5-(3-pyridyl)methyl-2,3,4,5-tetrahydro-1H-1,5-benzodiazepine] | 16 nM
Cc1cc(C(=O)N2CCCN(CCO)c3ccccc32)ccc1CNC(=O)Nc1c(F)cccc1F [Example 17, 1-(4-[3-(2,6Difuorophenyl)ureidomethyl]-3-methylbenzoyl)-5-(2-hydroxyethyl)-2,3,4,5-tetrahydro-1H-1,5-benzodiazepine] | 16 nM
CN1CCCN(C(=O)c2ccc(CNC(=O)Nc3c(F)cccc3F)c(Cl)c2)c2ccccc21 [Example 18, 1-(3-Chloro-4-[3-(2,6-difluorophenyl)ureidomethyl]benzoyl)-5-methyl-2,3,4,5-tetrahydro-1H-1,5-benzodiazepine] | 17 nM
Cc1cc(CNC(=O)Nc2c(F)cccc2F)ccc1C(=O)N1CCCN(C)c2ccccc21 [Example 19, 1-(4-[3-(2,6-Difluorophenyl)uredomethyl]-2-methylbenzoyl)-5-methyl-2,3,4,5-tetrahydro-1H-1,5-benzodiazepine] | 40 nM
Cc1cc(C(=O)N2CCCCc3ccccc32)cc(C)c1CNC(=O)Nc1c(F)cccc1F [Example 20] | 17 nM
O=C(NCc1ccc(C(=O)N2CCCCc3ccccc32)c(Cl)n1)Nc1c(F)cccc1F [Example 21, 1-(2-Chloro-6-[3-(2,6-difluorophenyl)ureidomethyl]nicotinoyl)-2,3,4,5-tetrahydro-1H-1-benzazepine] | 180 nM
Cn1c(CNC(=O)Nc2c(F)cccc2F)ccc(C(=O)N2CCCCc3ccccc32)c1=O [Example 22, 1-(6-[3-(2,6-Difluorophenyl)ureidomethyl]-1-methyl-2-oxo-1,2-dihydropyridyl-3-carbonyl)-2,3,4,5-tetrahydro-1H-1-benzazepine] | 1000 nM
CCN1CCCN(C(=O)c2ccc(CNC(=O)Nc3c(F)cccc3F)c(C)c2)c2ccccc21 [Example 23, 1-(4-[3-(2,6-Difluorophenyl)ureidomethyl]-3-methylbenzoyl)-5-ethyl-2,3,4,5-tetrahydro-1H-1,5-benzodiazepine] | 40 nM
Cc1cc(C(=O)N2CCCCc3cccnc32)ccc1CNC(=O)Nc1c(F)cccc1F [Example 24] | 92 nM
Cc1cc(C(=O)N2CCC[S+]([O-])c3ccccc32)ccc1CNC(=O)Nc1c(F)cccc1F (stereo not shown) [Example 25, 5-(4-[3-(2,6-Difluorophenyl)ureidomethyl]-3-methylbenzoyl)-1-oxo-1λ^4-2,3,4,5-tetrahydro-1,5-benzothiazepine] | 280 nM
Cc1cc(C(=O)N2CCCCc3sccc32)ccc1CNC(=O)Nc1c(F)cccc1F [Example 26, 4-(4-[3-(2,6-Difluorophenyl)ureidomethyl]-3-methylbenzoyl)-5,6,7,8-tetrahydro-4H-thieno[3,2-b]azepine] | 10 nM
Cc1cc(C(=O)N2CCCCc3sccc32)ccc1CNC(=O)Nc1c(F)c(F)cc(F)c1F [Example 27, 4-(3-Methyl-4-[3-(2,3,5,6-tetrafluorophenyl)ureidomethyl]benzoyl)-5,6,7,8-tetrahydro-4H-thieno[3,2-b]azepine] | 23 nM

The molecules below were run on Brattleboro rat (assay: Determination of antidiuretic activity in vivo (urine output, Brattleboro rat)). Settings: Brattleboro rats, 1 mg/kg p.o. in methylcellulose, vs control animals.
Experimental: Determination of Antidiuretic Activity in Vivo
The Brattleboro rat is a recognised model for vasopressin deficiency (for a review see FD Grant, “Genetic models of vasopressin deficiency”, Exp. Physiol. 85, 203S–209S, 2000). […] Compounds of the invention were administered to Brattleboro rats (0.1–10 mg/kg p.o. in methylcellulose. Urine was callected hourly and volumes were compared with control animals. Animals had free access to food and water throughout the experiment. Representative results are given in Table S. Results for Desmopressin are given for comparison.

SMILES | % inhibition of urine output (at 1 hour)
CCOC(=O)CNC(=O)NCc1ccc(C(=O)N2CCCCc3ccccc32)cc1C [Example 32, 1-(4-[N-(2-Ethoxy-2-oxoethylcarbamoyl)aminomethyl]-3-methylbenzoyl)-2,3,4,5-tetrahydro-1H-1-benzazepine] | 74%
Cc1cc(C(=O)N2CCCCc3ccccc32)ccc1CNC(=O)NCC(=O)O [Example 33, 1-(4-[N-(Carboxymethylcarbamoyl)aminomethyl]-3-methylbenzoyl)-2,3,4,5-tetrahydro-1H-1-benzazepine] | 38%
Cc1cc(C(=O)N2CCCCc3ccccc32)ccc1CNC(=O)NCC(=O)N(C)C [Example 35, 1-(4-[N-(2-Dimethylamino-2-oxoethylcarbamoyl)aminomethyl]-3-methylbenzoyl)-2,3,4,5-tetrahydro-1H-1-benzazepine] | 45–82%
Cc1cc(C(=O)N2CCCCc3ccccc32)ccc1CNC(=O)N1CCC[C@H]1C(=O)N(C)C [Example 39, 1-(2-Methyl-4-(2,3,4,5-tetrahydro-1-benzazepin-1-ylcarbonyl)benzylcarbamoyl)-L-proline-N,N-dimethylamide] | 82%
